How the values were obtained:
[1] = LNP mRNA encapsulation efficiency (Quant-iT RiboGreen RNA Assay Kit); type: physicochemical; conditions: LNP of Compound:cholesterol:DSPC:DMG-PEG2000=50:38.5:10:1.5 encapsulating mRNA
Method: The mRNA stock solution was dispersed in 20 mM acetic acid solution (pH 5.0) to give a final concentration of 200 μg/mL (aqueous phase). […] The mRNA was mixed with the lipid mixture by T-mixing and controlling the flow rate of aqueous phase and oil phase (3:1) with a total flow rate of 12-50 ml/min, to obtain LNP-encapsulated mRNA. The encapsulated LNP was diluted with buffer (pH 5.0-5.5) and then concentrated by ultrafiltration with replacement of diluent, and finally LNP was concentrated to 200 μg/mL˜600 μg/mL of mRNA, while the pH of LNP was adjusted to about 7-8. Finally, Quant-iT™ RiboGreen™ RNA Assay Kit (Invirtogen by Thermo Fisher Scientific, cat #R11490), and 10% Triton X-100 solution or 10% OTG solution as an emulsion breaker were used to detect the total and free content of mRNA in the LNP, and the encapsulation efficiency of LNP was calculated.

[2] = test system: balb/c mice; experiment: Extrahepatic delivery of Luciferase mRNA LNPs after intravenous injection, organ fluorescence (liver, spleen, stomach, intestine tract); type: in vivo; conditions: 20 μg LNP intravenous, 24 hours, FIGS. 2A-2D, compared with MC3 and Compound 20A groups
Method: Five balb/c mice (Zhejiang Vital River Laboratory Animal Technology Co., Ltd, female, 6-8 weeks old, 18-20 g) were taken as a group, labeled with a black marker pen on the tail with numbers 1 # to 5 #; five mice in each group were sequentially injected intravenously with 20 μg of the lipid nanoparticle composition. The lipid nanoparticle compositions of the present invention were prepared according to Test Example 1, in which Luciferase mRNA was encapsulated. A phosphate buffered saline (PBS) group was set up in parallel as a blank control, and an MC3 group was set up as a reference (obtained by preparation according to the method and ratio of Test Example 1).
Fluorescence assay was performed for each group of mice at 24 hours after intravenous administration of the samples ([…] YEASEN,LOT:D5330150, IP, 150 mg/kg was administered 10 minutes in advance for each group), the mice were anesthetized, and then put into a small animal living optical imaging system-IVIS® Lumina LT Series III according to the orders from tail mark 1 # to 5 #. The whole-body fluorescence was detected to evaluate the delivery and the expression of the prepared Luciferase mRNA.
At the end of the test, the mice were sacrificed by cervical dislocation, and the liver, spleen, stomach, and intestine tract were harvested, and the organs were discharged according to the corresponding positions from 1 # to 5 # for fluorescence detection of the organs.

[3] = LNP particle size and PDI (Malvern ZetaSizer); type: physicochemical; conditions: LNP of Compound:cholesterol:DSPC:DMG-PEG2000=50:38.5:10:1.5 encapsulating mRNA
Method: The mRNA stock solution was dispersed in 20 mM acetic acid solution (pH 5.0) to give a final concentration of 200 μg/mL (aqueous phase). […] The mRNA was mixed with the lipid mixture by T-mixing and controlling the flow rate of aqueous phase and oil phase (3:1) with a total flow rate of 12-50 ml/min, to obtain LNP-encapsulated mRNA. The encapsulated LNP was diluted with buffer (pH 5.0-5.5) and then concentrated by ultrafiltration with replacement of diluent, and finally LNP was concentrated to 200 μg/mL˜600 μg/mL of mRNA, while the pH of LNP was adjusted to about 7-8. […]

[4] = test system: rats; experiment: Toxicity assay: serum ALT/AST and deaths after single intravenous dose of Luciferase mRNA LNPs; type: in vivo; conditions: LNP intravenous single dose 3 mg/kg; for animals that died during the test: five animals per group
Method: Animals were grouped according to body weight (five animals per group) one day before administration (Zhejiang Vital River Laboratory Animal Technology Co. Ltd, male, body weight: 170-220 g). […] Luciferase mRNA was encapsulated in said lipid nanoparticle compositions.
The administration volume is 10 mL/kg, and the administration dosage is 3 mg/kg.

[5] = test system: SD rats; experiment: Toxicity assay: clinical markers 24 hours after intravenous LNP administration; type: in vivo; conditions: LNP intravenous 3 mg/kg, 24 hours after administration
Method: The nanoparticle samples containing different lipids were administered to rats (SD rats, Zhejiang Vital River Laboratory Animal Technology Co., Ltd, 3 males and 3 females per group, body weight: 220-300 g for female, 260-340 g for male) by intravenous injection at a dose of 3 mg/kg. The expression of various clinical markers was assessed at 24 hours after administration and compared with the expression induced by SM102 LNP formulation (i.e., LNP formulation made from the known SM102 lipid, which was prepared according to the method of Test Example 1 in the same ratio) as well as by phosphate buffered saline (PBS).

Structure (SMILES) | Encapsulation Efficiency [1] | extrahepatic delivery effect [2] | PDI [3] | Particle Size [3] | aspartate aminotransferase and alanine aminotransferase values compared with MC3 and SM102 groups ([4]; serum 24 hours after administration, FIGS. 3A-3B) | animals that died during the test [4] | Alanine transaminase [5] | Aspartate transaminase [5]
CCCCCCCCCCCOC(=O)CCCCCC1(CCCCCCCC(=O)OC(CCCCCCCC)CCCCCCCC)OC[C@H](CCN(C)C)O1 (stereo partly shown) [Compound 2A] | 96.44% | significant extrahepatic delivery effects | 0.02967 | 86.26 nm | lower than those of the groups of the ionizable lipids MC3 and SM102 |  |  | 
CCCCCCCCCCCOC(=O)CCCCCC1(CCCCCCCC(=O)OC(CCCCCCCC)CCCCCCCC)OCC(CCCCN(C)C)O1 (stereo not shown) [Compound 14] | 90.97% |  | 0.16 | 118.1 nm |  |  |  | 
CCCCCCCCCCCOC(=O)CCCCCC1(CCCCCCCC(=O)OC(CCCCCCCC)CCCCCCCC)OCC(CN(C)C)O1 (stereo not shown) [Compound 3] | 95.04% |  | 0.1264 | 95.04 nm |  |  |  | 
CCCCCC(CCCCC)CCOC(=O)CCCCCCCC1(CCCCCCCC(=O)OCCC(CCCCC)CCCCC)OC[C@H](CCN(C)C)O1 [Compound 20A] | 92.5% |  | 0.073 | 85.64 nm |  | all five rats in Compound 20A group died |  | 
CCCCCCCCCCCOC(=O)CCCCCC1(CCCCCCCC(=O)OC(CCCCCCCC)CCCCCCCC)OCC(CN(C)C)CO1 (stereo not shown) [Compound 1] | 97.22% |  | 0.1125 | 66.97 nm |  |  |  | 
CCCCCCCCCCCOC(=O)CCCCCC1(CCCCCCCC(=O)OC(CCCCCCCC)CCCCCCCC)OCC(CCN(CC)CC)O1 (stereo not shown) [Compound 11] | 97.5% |  | 0.06 | 80.34 nm |  |  |  | 
CCCCCCCCC(CCCCCC)C(=O)OCCCCCCC1(CCCCCCOC(=O)C(CCCCCC)CCCCCCCC)OCC(CCN(C)C)O1 (stereo not shown) [Compound 21] | 96.8% |  | 0.3138 | 92.89 nm |  |  |  | 
CCCCCCCCCCC(=O)OCCCCCCC1(CCCCCCCCOC(=O)C(CCCCCCCC)CCCCCCCC)OCC(CCN(C)C)O1 (stereo not shown) [Compound 8] | 90.99% |  | 0.09334 | 99.68 nm |  |  |  | 
CCCCCCCCC(CCCCCCCC)CC(=O)CCCCCCCC1(CCCCCCCC(=O)OC(CCCCCCCC)CCCCCCCC)OCC(CCN(C)C)O1 (stereo not shown) [Compound 18] | 96.5% |  | 0.10 | 69.23 nm |  |  |  | 
CCCCCCCCCCC(=O)OCCCCCCC1(CCCCCCCC(=O)OC(CCCCCCCC)CCCCCCCC)OCC(CN(C)C)O1 (stereo not shown) [Compound 6] | 95.50% |  | 0.1676 | 69.85 nm |  |  |  | 
CCCCCCCCCCCNC(=O)CCCCCC1(CCCCCCCC(=O)NC(CCCCCCCC)CCCCCCCC)OCC(CCN(C)C)O1 (stereo not shown) [Compound 17] | 98.2% |  | 0.05 | 125.0 nm |  |  |  | 
CCCCCCCCCCC(=O)OCCCCCCC1(CCCCCCCC(=O)OC(CCCCCCCC)CCCCCCCC)OCC(CN(C)C)CO1 (stereo not shown) [Compound 4] | 96.23% |  | 0.1387 | 69.03 nm |  |  |  | 
CCCCCCCCCCC(=O)OCCCCCCC1(CCCCCCCCOC(=O)C(CCCCCCCC)CCCCCCCC)OCC(CN(C)C)O1 (stereo not shown) [Compound 7] | 96.52% |  | 0.1537 | 92.38 nm |  |  |  | 
CCCCCCCCCCCOC(=O)CCCCCN(CCO)CCCCCCCC(=O)OC(CCCCCCCC)CCCCCCCC [SM-102, reference compound] | 97.5% |  | 0.07 | 74.80 nm |  |  | 286.51 U/L | 486.42 U/L
CCCCCCCCCCC(=O)OCCCCCCC1(CCCCCCCC(=O)OC(CCCCCCCC)CCCCCCCC)OCC(CCN(C)C)O1 (stereo not shown) [Compound 5] | 94.92% |  | 0.04107 | 89.54 nm |  |  | 65.72 U/L | 251.10 U/L
CCCCCCCCCCC(=O)OCCCCCCC1(CCCCCCCC(=O)OC(CCCCCCCC)CCCCCCCC)OC[C@@H](CCN(C)C)O1 (stereo partly shown) [Compound 5B] | 98.4% |  | 0.04848 | 67.95 nm |  |  |  | 
CCCCCCCCCCCOC(=O)CCCCCC1(CCCCCCCC(=O)OC(CCCCCCCC)CCCCCCCC)OCC(CCN(C)C)O1 (stereo not shown) [Compound 2] | 92.32% |  | 0.03414 | 70.27 nm |  |  | 116.27 U/L | 342.17 U/L
CCCCCCCCCCCOC(=O)CCCCCC1(CCCCCCCC(=O)OC(CCCCCCCC)CCCCCCCC)OCC(CCN(CC)C(C)C)O1 (stereo not shown) [Compound 16] | 97.6% |  | 0.03 | 71.68 nm |  |  |  | 
CCCCC/C=C\C/C=C\CCCCCCCCC(CCCCCCCC/C=C\C/C=C\CCCCC)OC(=O)CCCN(C)C [MC3, reference compound] | 96.7% |  | 0.15 | 72.70 nm |  | four rats in the MC3 group died |  | 
CCCCCCCCCCCOC(=O)CCCCCC1(CCCCCCCC(=O)OC(CCCCCCCC)CCCCCCCC)OCC(CCN(C)CC)O1 (stereo not shown) [Compound 10] | 96.5% |  | 0.07 | 78.44 nm |  |  |  | 
CCCCCCCCCCCOC(=O)CCCCCC1(CCCCCC(=O)OCCCCCCCCCCC)OCC(CCN(C)C)O1 (stereo not shown) [Compound 19] | 93.3% |  | 0.34 | 110.3 nm |  |  |  | 
CCCCCCCCCCC(=O)OCCCCCCC1(CCCCCCCCOC(=O)C(CCCCCCCC)CCCCCCCC)OCC(CN(C)C)CO1 (stereo not shown) [Compound 9] | 95.07% |  | 0.1368 | 71.61 nm |  |  |  | 
CCCCCCCCCCCOC(=O)CCCCCC1(CCCCCCCC(=O)OC(CCCCCCCC)CCCCCCCC)OCC(CCN(C)CCC)O1 (stereo not shown) [Compound 15] | 97.2% |  | 0.10 | 61.73 nm |  |  |  | 
